The source of these data is US20090105126A1 (priority 2007, published 2009).

Several values for one entry are separate records, joined by “and”; a condition that tells them apart may be missing. Identical values can stand only once. Like-named read-outs stand apart in the source and are kept apart here. Where only a bound is given, the exact number is not on record here.

Data set [1] in a line: Fluorescence anisotropy of entrapped calcein. Type of data set: physicochemical. The note with it: calcein probe, excitation 495 nm, emission 520 nm; higher value = more viscous. How it is done: DPPC was added by ethanol injection to make 5 mg/ml liposome at 50° C. […] Fluorescence anisotropy was measured at an excitation wavelength of 495 nm and emission wavelength of 520 nm. Fluorescence anisotropy is an order parameter, which ranged from 0 to 0.4 in aqueous solution. The higher value indicates more viscous solution.

For data set [2], the system named is S. pneumoniae (ATCC 6303).
Description: Thirty six (36) female mice (Swiss Webster, Charles River) were received in the vivarium and acclimated for at least 7 days prior to initiation of the protocol. […] Mice were dosed on days 1, 2 and 3. […] Mice in Group 3 received 20 min inhalation with sterile 0.9% NaCl for inhalation (Cardinal, Lot #WBA194). Euthanization and determination of bacterial colonies in blood and lungs were performed as described in Example 8.
Data set [3] can be described thus: Concentration of vancomycin in the lungs of mice after inhalation therapy (Example 8). The following applies: for [VANCOMYCIN] in Lung, animals n/N (second line of cell): Inhalation, BID x 3; for Vancomycin (μg/g), mean / Vancomycin (μg/lung), mean / Vancomycin (μg/g), individual mice / Vancomycin (μg/lung), individual mice: 4 days after inhalation therapy; for Vancomycin (μg/g), mean / Vancomycin (μg/lung), mean: group mean; for Vancomycin (μg/g), individual mice / Vancomycin (μg/lung), individual mice: listed as Soluble Vancomycin. How it is done: The instillation was performed through the nostrils route using micropipette with tips (Gilson, calibrated with Femt Scientific). The mouse is held by its ears and 20 μl of bacteria are gradually (2 μl per breath) released into the nostrils (10 μl in each nostril) with the help of a micro-pipette. The mice were observed every 10 min until they fully recovered from the anesthesia.
There were 5 groups and each group had 12 mice. […] Mice in group 5 received sterile normal saline (0.9% NaCl) by inhalation.

Data set [4] has as its system S. pneumoniae (ATCC 6303). The note with it: for Log CFU/Lung, animals n/N (second line of cell) / Log CFU/mL of Blood, animals n/N (second line of cell) / Log CFU/mL of Blood: Inhalation, BID x 3; for Log CFU/mL of Blood: animals surviving until Day 7; for mice in which S. pneumoniae in the lungs was not eradicated: mice surviving to day 7.
Description: Sixty (60) Thirty six (36) female mice (Swiss Webster, Charles River) were received in the vivarium and acclimated for at least 7 days prior to initiation of the protocol. All mice were instilled via nasal insufflation with S. pneumoniae (ATCC, 6303, 4.1×10^4 CFU/ mice) after being anesthetized with Ketamine/Xylazine solution (80 mg/kg and 10 mg/kg). The instillation was performed through the nostrils route using micropipette with tips (Gilson, calibrated with Femt Scientific). The mouse is held by its ears and 20 μl of bacteria are gradually (2 μl per breath) released into the nostrils (10 μl in each nostril) with the help of a micro-pipette. The mice were observed every 10 min until they fully recovered from the anesthesia.
Mice were dosed on days 1, 2 and 3. There were 5 groups and each group had 12 mice. […] Mice in group 5 received sterile normal saline (0.9% NaCl) by inhalation.
Determination of bacterial colonies in the lung and blood of mice. Mice that were euthanized prior to day 7 and mice that survived to day 7 were euthanized by CO2 asphyxiation. The blood was collected by cardiac puncture after euthanization. A 1/10 dilution of blood was made in BHI broth immediately. The lungs were removed aseptically, weighed and placed into 1 ml of BHI broth in a sterile 5 ml Polypropylene round-bottom tube.
Lungs were homogenized sterilely with a Polytron^R (Brinkmann, Rexdale, Ontario, Canada) using the maximum speed in the 5 ml Polypropylene round-bottom tube. The tissues were homogenized until a smooth. Ten-fold dilutions of the lung homogenates were made in BHI broth supplemented with 10 ug/ml of Colistin(C) 5 ug/ml of Oxolinic (O). One hundred (100) ul of each dilution of lung homogenates were plated out onto CBO agar plates and spread. The plates were incubated for 24 hours at 37° C. then colonies were counted.
Setting [5] is: Intraperitoneal, BID x 3, 12 mg/kg/day.
Setting [6] is: Intraperitoneal, BID x 3, 12 mg/kg/day, animals surviving until Day 7.
Where [7] appears, read: intraperitoneal injection 6 mg/kg BID.

Consider `CN[C@H](CC(C)C)C(=O)N[C@H]1C(=O)N[C@@H](CC(N)=O)C(=O)N[C@H]2C(=O)N[C@H]3C(=O)N[C@H](C(=O)N[C@H](C(=O)O)c4cc(O)cc(O)c4-c4cc3ccc4O)[C@H](O)c3ccc(c(Cl)c3)Oc3cc2cc(c3O[C@@H]2O[C@H](CO)[C@@H](O)[C@H](O)[C@H]2O[C@H]2C[C@](C)(N)[C@H](O)[C@H](C)O2)Oc2ccc(cc2Cl)[C@H]1O` [Vancomycin solution (300 mg/ml), vancomycin], for which, in data set [1], the Fluorescence anisotropy is 0.17.
Take `CN[C@H](CC(C)C)C(=O)N[C@H]1C(=O)N[C@@H](CC(N)=O)C(=O)N[C@H]2C(=O)N[C@H]3C(=O)N[C@H](C(=O)N[C@H](C(=O)O)c4cc(O)cc(O)c4-c4cc3ccc4O)[C@H](O)c3ccc(c(Cl)c3)Oc3cc2cc(c3O[C@@H]2O[C@H](CO)[C@@H](O)[C@H](O)[C@H]2O[C@H]2C[C@](C)(N)[C@H](O)[C@H](C)O2)Oc2ccc(cc2Cl)[C@H]1O` [Vancomycin solution (15 mg/ml), vancomycin]: the Fluorescence anisotropy in data set [1] is on record as 0.014.
Regarding `CN[C@H](CC(C)C)C(=O)N[C@H]1C(=O)N[C@@H](CC(N)=O)C(=O)N[C@H]2C(=O)N[C@H]3C(=O)N[C@H](C(=O)N[C@H](C(=O)O)c4cc(O)cc(O)c4-c4cc3ccc4O)[C@H](O)c3ccc(c(Cl)c3)Oc3cc2cc(c3O[C@@H]2O[C@H](CO)[C@@H](O)[C@H](O)[C@H]2O[C@H]2C[C@](C)(N)[C@H](O)[C@H](C)O2)Oc2ccc(cc2Cl)[C@H]1O` [Vancomycin, vancomycin], the figures for the “Log CFU/Lung, animals n/N (second line of cell)” value in data set [2] (setting [5]), in data set [4] (3.8 mg/kg/day) and in data set [4] (6.0 mg/kg/day) were 3/12, 11/12 and 12/12, respectively. Moreover, the “Log CFU/mL of Blood, animals n/N (second line of cell)” value in data set [2] (setting [5]) is listed as 5/12; in data set [4] (3.8 mg/kg/day) it was 0/12; in data set [4] (6.0 mg/kg/day), 0/12. In data set [2] (setting [6]), the “Log CFU/Lung” value amounted to 0.7 ± 1.3 Log CFU/Lung. Besides, the “Log CFU/mL of Blood” value in data set [2] (setting [6]) was found to be 1.7 ± 2.1 Log CFU/mL; in data set [4] (3.8 mg/kg/day), 0 Log CFU/mL; in data set [4] (6.0 mg/kg/day), 0 Log CFU/mL. The “mice in which S. pneumoniae in the lungs was not eradicated” value in data set [2] (setting [7]) was 25%; in data set [4] (inhaled 3.8 mg/kg), 92%; in data set [4] (inhaled 6 mg/kg), 100%. Moreover, the “mice in which S. pneumoniae was not eradicated from the blood” value in data set [2] (setting [7]) stood at 42%. The “mice surviving to day 7” value in data set [2] (intraperitoneal injection 6 mg/kg BID, days 1, 2 and 3, n=12) is on record as 100%. Further, the “[VANCOMYCIN] in Lung, animals n/N (second line of cell)” value (“[VANCOMYCIN] in Lung, animals n/N” for short) in data set [3] (3.8 mg/kg/day) was 12/12; the “[VANCOMYCIN] in Lung, animals n/N” value in data set [3] (6.0 mg/kg/day) is reported as 12/12; the “[VANCOMYCIN] in Lung, animals n/N” value under setting [5] is 0/12. Further, the “Vancomycin (μg/g), mean” value in data set [3] (inhaled 3.8 mg/kg) is 34 µg/g; in data set [3] (inhaled 6 mg/kg), 61 µg/g. The “Vancomycin (μg/lung), mean” value in data set [3] (inhaled 3.8 mg/kg) was found to be 5 μg/lung; in data set [3] (inhaled 6 mg/kg) it was 10 μg/lung. In addition, the “Vancomycin (μg/g), individual mice” value in data set [3] (inhaled 3.8 mg/kg) is 14.0 µg/g and 37.0 µg/g; in data set [3] (inhaled 6 mg/kg), 42.0 µg/g and 59.0 µg/g and 66.0 µg/g. The “Vancomycin (μg/lung), individual mice” value was 5.8 μg/lung and 5.2 μg/lung (2×) and 6.8 μg/lung and 3.4 μg/lung and 4.7 μg/lung (2×) and 5.9 μg/lung and 2.0 μg/lung and 3.6 μg/lung and 8.1 μg/lung and 6.1 μg/lung in data set [3] (inhaled 3.8 mg/kg); 7.6 μg/lung and 8.8 μg/lung and 6.4 μg/lung and 9.7 μg/lung and 9.0 μg/lung and 9.3 μg/lung and 8.3 μg/lung and 14.0 μg/lung and 9.8 μg/lung in data set [3] (inhaled 6 mg/kg). For the same compound, the “mice showing bacterial level in lungs” value in data set [4] (3.8 mg/kg/day, 7 days, FIG. 8) is reported as over 90%. The “bacterial level in lungs” value in data set [4] (6.0 mg/kg/day, 7 days, FIG. 8) is given as “still showed substantial bacterial level”. Also, the “Log10 CFU/lung, individual mice” value in data set [4] (inhalation 3.8 mg/kg for 3 days, day 7, 1 = limit of detection, no colonies detected) was 1 Log10 CFU/lung and 2 Log10 CFU/lung. Further, the “bacteria in blood” value in data set [4] (inhaled 6 mg/kg and 3.8 mg/kg, day 7) was “no bacteria in their blood”. For the same compound, the Survival in data set [4] (inhaled, 6 or 3.8 mg/kg/day on days 1, 2 and 3, 12 mice per group, FIG. 4) is 100%. The “vancomycin in the lungs” value (IP 12 mg/kg/day, day seven, listed as free vancomycin, 12 mg/kg/day) is recorded as “no vancomycin deposition in lung was detected” and the “vancomycin in the lungs” value (IP injections, 4 days after the end of therapy) is “No detectable concentrations”. In addition, where the note is “IP, based on 4% of the delivered dose in the lungs 30 min post IP injections”, the “initial daily lung dose” value is 15 ug of vancomycin/lung. In addition, the “[VANCOMYCIN] in Lung” value under setting [6] was 0 mg/g. Where the note is “Six (6) hours after IP injection, Swiss Webster mice”, the “vancomycin after IP injection” value was “no detectable vancomycin was observed”.
